Experimental data: patent publication US20240000777A1, “USE OF AN ERK INHIBITOR FOR THE TREATMENT OF MYELOFIBROSIS” (Novartis AG, priority 2020, published 2024)

Experiments:
[1] = system: JAK2V617F PV/MF mouse model; format: in vivo; conditions: oral, 14 consecutive days, ruxolitinib 60 mg/kg BID, Compound A 75 mg/kg QD
[2] = system: Jak2V617F Erk1-/- Erk2 fl/fl Mx-Cre mice; assay: Genetic deletion of ERK1/2 plus ruxolitinib in Jak2V617F MPN mouse model; format: in vivo; conditions: ruxolitinib for 2 weeks combined with ERK1/2 deletion
Source text: Jak2V617F Mx-Cre mouse was crossed with Erk1−/− Erk2 fl/fl Mx-Cre mice to genetically delete ERK1/2 to obtain Jak2V617F Erk1−/− Erk2 fl/fl Mx-Cre offspring.

| SMILES | polycythemia [1] | elevated hematocrit ([1]; FIG. 3A) | splenomegaly ([1]; FIG. 3B) | normalizing red blood cell count ([2]; FIG. 7B) | reducing the mutant clone ([2]; versus single interventions, FIG. 7A) |
| --- | --- | --- | --- | --- | --- |
| CNC[C@@H](NC(=O)c1ccc(-c2nc([C@H]3CC[C@H](O)[C@@H](F)C3)cnc2N)cc1F)c1cc(F)cc(Br)c1 [Compound A, 4-(3-amino-6-((1S,3S,4S)-3-fluoro-4-hydroxycyclohexyl)pyrazin-2-yl)-N—((S)-1-(3-bromo-5-fluorophenyl)-2-(methylamino)ethyl)-2-fluorobenzamide] | significantly normalizes | significantly normalizes | significantly normalizes |  |  |
| N#CC[C@H](C1CCCC1)n1cc(-c2ncnc3[nH]ccc23)cn1 [ruxolitinib, (R)-3-(4-(7H-pyrrolo[2,3-d]pyrimidin-4-yl)-1H-pyrazol-1-yl)-3-cyclopentylpropanenitrile] |  |  |  | more effective | more effective |
